US20230250095A1, “BENZIMIDAZOLE DERIVATIVES, PREPARATION METHOD THEREFOR AND MEDICAL USE THEREOF” (TUOJIE BIOTECH(SHANGHAI) CO., LTD., priority 2020, published 2023)

How the values were obtained:
[1] = In vivo pharmacokinetic experiment in rats, intragastric administration; conditions: SD rats, 5 mg/kg
Description: The drug concentrations in the plasma of the test animals (rats) at different time points after intragastric administration of the compound of the present disclosure were determined by an LC/MS/MS method. The pharmacokinetic behavior in rats of the compound of the present disclosure was studied and its pharmacokinetic profile was evaluated.
Male, healthy SD rats of SPF grade, 6-8 weeks old, 3 rats in each group.
Intragastric administration: a certain amount of compound was weighed and prepared into a 1 mg/mL white suspension by adding 0.5% by volume of hydroxypropyl methylcellulose, 0.1% by volume of tween 80 and 99.4% by volume of water.
SD rats were administered intragastrically with compound 4 or BLU-5937 at a dose of 5 mg/kg after fasting overnight.
Rats were administered intragastrically with the compound of the present disclosure. 0.2 mL of blood was collected from the jugular vein at 0.25 h, 0.5 h, 1 h, 2 h, 4 h, 8 h and 24 h after the administration, placed in a tube containing EDTA-K2, separated by centrifugation at 4° C. at 4000 rpm for 5 min to obtain plasma, which was stored at −75° C.
Determination of the content of the test compounds at different concentrations in the plasma of rats after intragastric administration: 50 μL of rat plasma at each time point after the administration was taken, 200 μL of a solution of internal standard dexamethasone (50 ng/mL) in acetonitrile was added thereto, and the mixture was vortexed for 30 s to be mixed well, centrifuged at 4° C. at 4700 rpm for 15 min. The supernatant of the plasma sample was subjected to 3-fold dilution with water, and 2.0 μL of the dilution was taken for LC/MS/MS analysis.

[2] = Caco-2 permeability assay; type: in vitro ADME; conditions: human
Description: The apparent permeability coefficient (Papp) of the analytical drug was determined by liquid chromatography-tandem mass spectrometry (LC/MS/MS) through a Caco-2 cell model.
The transfer rate of drug from the apical end to the basal end was determined. 108 μL of HBSS (25 mM HEPES, pH 7.4) containing 10 μM test compound was added to the apical end of the upper chamber of Transwell (purchased from Corning) containing Caco-2 cells (purchased from ATCC) at a density of 6.86×10^5 cells/cm^2, and meanwhile, 8 μL of the sample was added, as an initial dosing-end sample (A-B), to a new 96-well plate to which 72 μL of HBSS (25 mM HEPES, pH 7.4) and 240 μL of acetonitrile (containing 100 nM alprazolam, 200 nM caffeine and 100 nM tolbutamide) had been added, and the plate was vortexed at 1000 rpm for 10 min. 300 μL of HBSS (25 mM HEPES, pH 7.4) was added to the basal end.
The transfer rate of drug from the basal end to the apical end was determined. 308 μL of HBSS (25 mM HEPES, pH 7.4) containing 10 μM test compound was added to wells of the basal end of the plate, and meanwhile, 8 μL of the sample was added, as an initial dosing-end sample (B-A), to a new 96-well plate to which 72 μL of HBSS (25 mM HEPES, pH 7.4) and 240 μL of acetonitrile (containing 100 nM alprazolam, 200 nM caffeine and 100 nM tolbutamide) had been added. The plate was vortexed at 1000 rpm for 10 min, and 100 μL of HBSS (25 mM HEPES, pH 7.4) was added to the apical end.
The transfer rate from the apical end to the basal end and the transfer rate from the basal end to the apical end need to be determined simultaneously.
At the end of the transfer cycle, 8 μL of the sample was taken from the dosing end (apical end of A-B flow and basal end of B-A flow) and added to 72 μL of HBSS (25 mM HEPES, pH 7.4) and 240 μL of acetonitrile (containing 100 nM alprazolam, 200 nM caffeine and 100 nM tolbutamide), and the mixture was added to a new 96-well plate. 80 μL of the liquid was taken directly from each of the basal end of the A-B flow and the apical end of the B-A flow, and added together with 240 μL of acetonitrile (containing 100 nM alprazolam, 200 nM caffeine and 100 nM tolbutamide) to a new 96-well plate. The plates were vortexed at 1000 rpm for 10 min. The samples were centrifuged at 4000 rpm for 30 min. 100 μL of the supernatant was transferred to a new 96-well plate. All samples were analyzed by LC-MS/MS with 100 μL of pure water.
Data were calculated using Microsoft Excel and peak areas were calculated from the chromatograms. The apparent permeability coefficient (Papp) is in cm/s and is calculated using the following formula: […]
Papp is apparent permeability (cm/s×10^−6);
The outflow ratio can be determined by the following equation: […]

CC(=O)N1CCO[C@@H](Cn2c(-c3c(F)cc(N4CCCC4=O)cc3Cl)nc3cc(C)ccc32)C1 [Compound 4, (S)-1-(4-(1-((4-acetylmorpholin-2-yl)methyl)-5-methyl-1H-benzo[d]imidazol-2-yl)-3-chloro-5-fluorophenyl)pyrrolidin-2-one]
V [1]: 2.05 L/kg
Tmax ([1]; male, rat, plasma, po): 25.2 min
half-life ([1]; male, rat, plasma, po): 57.6 min
AUC(0-t) ([1]; male, rat, po, plasma): 408 ng·h/mL
Cmax ([1]; male, rat, po, plasma): 356 ng/mL
Papp A→B at 10 μM ([2]; Caco-2, 10 μM test compound, apical to basal, pH 7.4): 8.1 ×10⁻⁶ cm/s
efflux ratio at 10 μM ([2]; Caco-2, Papp (B-A)/Papp (A-B), read-out: Outflow ratio): 3.8
